{"source": "patent US8992783B2", "about": "“Process for enantioseparation of chiral systems with compound formation using two subsequent crystallization steps” (Max-Planck-Gessellschaft zur Förderung der Wissenschaften …, priority 2008, dated 2015)", "conditions": "methionine enantiomers in water", "note": "Read-outs that look alike come from different tables or passages of the source.", "data": [{"smiles": "CSCC[C@H](N)C(=O)O", "note": "(racemic) [methionine]", "values": [{"measurement": "Solubility at eutectic composition", "setting": "274.15 K", "result": "′ 3.83 wt %"}, {"measurement": "Solubility at eutectic composition", "setting": "333.15 K", "result": "′ 9.38 wt %"}]}]}
